Source: ChEMBL document CHEMBL1201862, “PubChem BioAssay data set” (2004)
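How tested: cells in 96-well plates exposed to compound for 48 hours at five concentrations. GI50: concentration for 50% inhibition of growth.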 Activity calls are given as the source filed them. Cut-off read from the data, not from the text of the source: active = GI50 up to about 1.1 µM and inactive = higher.

Legend:
Assay in all cases: inhibition of tumour cell growth, NCI panel, 48 h
SN12C = tested on: SN12C
IGROV-1 = tested on: IGROV-1
SK-OV-3 = tested on: SK-OV-3
RXF 393 = tested on: RXF 393
RPMI-8226 = tested on: RPMI-8226
COLO 205 = tested on: COLO 205
SW-620 = tested on: SW-620
TK-10 = tested on: TK-10
T47D = tested on: T47D
OVCAR-8 = tested on: OVCAR-8
NCI-H226 = tested on: NCI-H226
Malme-3M = tested on: Malme-3M
SR = tested on: SR
HCT-116 = tested on: HCT-116
786-0 = tested on: 786-0
HL-60 = tested on: HL-60
UACC-257 = tested on: UACC-257
CCRF-CEM = tested on: CCRF-CEM
NCI-H460 = tested on: NCI-H460
UACC-62 = tested on: UACC-62

| Structure (SMILES) | GI50 (SN12C) | GI50 (IGROV-1) | GI50 (SK-OV-3) | GI50 (RXF 393) | GI50 (RPMI-8226) | GI50 (COLO 205) | GI50 (SW-620) | GI50 (TK-10) | GI50 (T47D) | GI50 (OVCAR-8) | GI50 (NCI-H226) | GI50 (Malme-3M) | GI50 (SR) | GI50 (HCT-116) | GI50 (786-0) | GI50 (HL-60) | GI50 (UACC-257) | GI50 (CCRF-CEM) | GI50 (NCI-H460) | GI50 (UACC-62) |
| --- | --- | --- | --- | --- | --- | --- | --- | --- | --- | --- | --- | --- | --- | --- | --- | --- | --- | --- | --- | --- |
| CC(=N\c1ccncc1)/C(C)=N/c1ccncc1 | 16.2 µM (inactive) | 17.3 µM (inactive) | > 100 µM (inactive) | 27.4 µM (inactive) | 21.1 µM (inactive) | 17 µM (inactive) | 30.8 µM (inactive) | 35.8 µM (inactive) | 26.2 µM (inactive) | 35.2 µM (inactive) | 34 µM (inactive) | 17.6 µM (inactive) | 27.1 µM (inactive) | 29.8 µM (inactive) | 34.7 µM (inactive) | 26.7 µM (inactive) | 36.3 µM (inactive) | 25.8 µM (inactive) | 96.6 µM (inactive) | – |
| Cn1cc2c(=O)n3ncn(-c4ccc(Br)cc4)c3nc2n1 | > 100 µM (inactive) | > 100 µM (inactive) | > 100 µM (inactive) | > 100 µM (inactive) | > 100 µM (inactive) | > 100 µM (inactive) | > 100 µM (inactive) | > 100 µM (inactive) | > 100 µM (inactive) | > 100 µM (inactive) | > 100 µM (inactive) | > 100 µM (inactive) | > 100 µM (inactive) | > 100 µM (inactive) | > 100 µM (inactive) | > 100 µM (inactive) | > 100 µM (inactive) | > 100 µM (inactive) | > 100 µM (inactive) | > 100 µM (inactive) |
| CN(C)C(=S)SN(C)C(=O)Nc1ccccc1 | 41.2 µM (inactive) | 26 µM (inactive) | > 87.7 µM (inactive) | 1.18 µM (inactive) | 15.7 µM (inactive) | 4.48 µM (inactive) | 7.28 µM (inactive) | > 96.2 µM (inactive) | 1.26 µM (inactive) | 35.3 µM (inactive) | 45.8 µM (inactive) | 16.7 µM (inactive) | 5.43 µM (inactive) | 8.91 µM (inactive) | 6.62 µM (inactive) | 2.86 µM (inactive) | 46.1 µM (inactive) | 0.993 µM (active) | 1.82 µM (inactive) | 3.62 µM (inactive) |
| COc1cccc2c1C(=O)C=CC2=O | 14 µM (inactive) | 12.2 µM (inactive) | 21.8 µM (inactive) | 6.76 µM (inactive) | 2.1 µM (inactive) | 7.06 µM (inactive) | 6.18 µM (inactive) | 14.2 µM (inactive) | 2.22 µM (inactive) | 3.58 µM (inactive) | 19.1 µM (inactive) | 15.5 µM (inactive) | 0.269 µM (active) | 3.44 µM (inactive) | 11.5 µM (inactive) | 0.32 µM (active) | 15.5 µM (inactive) | 0.281 µM (active) | 15.6 µM (inactive) | 10.9 µM (inactive) |
| Cc1cccc(/N=C/C=C(\Cl)c2ccc3ccccc3c2)c1 | 16.6 µM (inactive) | 20.6 µM (inactive) | 23.4 µM (inactive) | 15.6 µM (inactive) | 7.91 µM (inactive) | 17.9 µM (inactive) | 9.46 µM (inactive) | 19.8 µM (inactive) | 4.88 µM (inactive) | 18.4 µM (inactive) | 34.1 µM (inactive) | 17.1 µM (inactive) | 3.88 µM (inactive) | 2.98 µM (inactive) | 13.9 µM (inactive) | 11.4 µM (inactive) | 15.7 µM (inactive) | 4.15 µM (inactive) | 28.4 µM (inactive) | 15.1 µM (inactive) |
| O=C1CCC2(CCO1)OCCO2 | > 100 µM (inactive) | > 100 µM (inactive) | > 100 µM (inactive) | > 100 µM (inactive) | – | – | > 100 µM (inactive) | > 100 µM (inactive) | > 100 µM (inactive) | > 100 µM (inactive) | > 100 µM (inactive) | > 100 µM (inactive) | > 100 µM (inactive) | > 100 µM (inactive) | > 100 µM (inactive) | > 100 µM (inactive) | > 100 µM (inactive) | > 100 µM (inactive) | > 100 µM (inactive) | > 100 µM (inactive) |
| CCOC(=O)C(=CN1CCNC1=S)C(=O)OCC | > 100 µM (inactive) | > 100 µM (inactive) | > 100 µM (inactive) | > 100 µM (inactive) | > 100 µM (inactive) | > 100 µM (inactive) | > 100 µM (inactive) | – | > 100 µM (inactive) | > 100 µM (inactive) | > 100 µM (inactive) | > 100 µM (inactive) | > 100 µM (inactive) | > 100 µM (inactive) | > 100 µM (inactive) | > 100 µM (inactive) | > 100 µM (inactive) | > 100 µM (inactive) | > 100 µM (inactive) | > 100 µM (inactive) |
